For 81 compounds, RP-LC retention time results are on record in the METLIN SMRT retention time set (Domingo-Almenara et al. 2019).

Structures are written as SMILES.

The nature of the series: gradient 5% acetonitrile 3 min, to 50% in 2 min, to 85% in 15 min, held 3 min, 100 µL/min. The following applies: column: Zorbax Extend-C18 2.1 x 50 mm; eluents: water / acetonitrile, 0.1% formic acid. The procedure, abridged:
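Using water and acetonitrile that each contained 0.1% formic acid, mixtures of ~100 pure standards were separated at 100 μL/min on a Zorbax Extend-C18 column (2.1 × 50 mm, 1.8 μm). The HPLC fed a quadrupole time-of-flight mass spectrometer working in positive and negative ionization mode, with dead and dwell volumes of 40 μL and 900 μL. Data were acquired over 3 months. Retention time was read from computationally picked adduct peaks after manual inspection of each.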
`O=C(Nc1ccc(-c2nc(-c3ccccc3)co2)cc1)c1ccc(Br)o1`: the RP-LC retention time amounted to 1190 s.

For `CCN(C(=O)CN1C(=O)NC(c2ccc(Cl)cc2)C2=C1COC2=O)c1ccccc1` (stereo unspecified), the RP-LC retention time turned out to be 834 s.

On to `Cc1ccc(C)c(C(=O)CC2(O)C(=O)N(C)c3ccccc32)c1` (stereo unspecified), for which the RP-LC retention time is 818 s.

On to `Cc1ccc(-c2ncccc2CNS(=O)(=O)c2cccc(C)c2)cc1`, for which the RP-LC retention time was found to be 726 s.

The compound `COc1cccc(CNC(=O)Nc2c(-c3cccc(C)c3)nc3ccccn23)c1` showed an RP-LC retention time of 673 s.

On to `Cc1cccc(NC(=O)Nc2ccc3nncn3c2)c1`, for which the RP-LC retention time was 690 s.

With `O=C(Nc1ccc(Br)cc1)C1CCCN(c2ncc(-c3ccccc3)cn2)C1` (stereo unspecified), the RP-LC retention time amounted to 1240 s.

Compound `Cc1ccc2c(=O)c(C(=O)N3CCCC3)cn(CC(=O)NCc3ccc4c(c3)OCO4)c2n1` displayed an RP-LC retention time of 625 s.

Turning to `O=C(NCC1CCOCC1)Nc1ccc(C(F)(F)F)cc1`, the RP-LC retention time was 734 s.

Regarding `Cc1cc(NC(=O)Nc2ccc3nnc(C4CCC4)n3c2)ccc1Br`, the RP-LC retention time is 903 s.

Compound `Cc1nc2c(nc1C)C(=O)c1ccccc1C2=O` gave an RP-LC retention time of 655 s.

Consider `Cc1cc(C)cc(N2CCC(NC(=O)Nc3cc(C)ccc3C)C2=O)c1` (stereo unspecified), for which the RP-LC retention time was determined as 955 s.

As for `CC(C)NC(=O)C1CCN(c2nc3ccc(-c4ccc(F)cc4)nc3s2)CC1`, the RP-LC retention time was found to be 752 s.

`Cc1cc(C)cc(NC(=O)N(C)CC2CCOCC2)c1`: the RP-LC retention time was found to be 776 s.

`O=C(NCC#CCN1CCc2ccccc2C1)c1ccc(Cl)s1`: the RP-LC retention time stood at 587 s.

Compound `COc1cccc(CN2CCC3(CC2)C(OC)C(=O)N3c2cccc(F)c2)n1` (stereo unspecified) displayed an RP-LC retention time of 703 s.

`CCOCCOC(=O)C1=C(C)NC2=C(C(=O)CCC2)C1c1cccc(OC)c1OC` (stereo unspecified) displayed an RP-LC retention time of 732 s.

`Cc1ccccc1NC(=O)CN(C)S(=O)(=O)c1cc(C(=O)N2CCC(C)CC2)n(C)c1` came in with an RP-LC retention time of 954 s.

In turn, `O=C(c1ccccc1)N1CCC(C(=O)N2CCc3ccccc32)CC1` registered an RP-LC retention time of 750 s.

As for `CCc1cccc(NC(=O)CN2C(=O)CCCc3cc(S(=O)(=O)N4CCCC4)ccc32)c1`, the RP-LC retention time came out at 916 s.

For the compound `Cc1[nH]c(C(=O)N2CCCC(C(=O)NCc3ccc(OC(C)C)cc3)C2)c(C)c1C(=O)OC(C)C` (stereo unspecified), the RP-LC retention time is 929 s.

Take `Fc1ccc(Cl)cc1CN1CC(COc2cccnc2)C2(CCOCC2)C1` (stereo unspecified): the RP-LC retention time turned out to be 566 s.

`COc1ccc(N2C(=O)NC3CC2(C)Oc2ccc(OC)cc23)cc1` (stereo unspecified) yielded an RP-LC retention time of 765 s.

Consider `O=C(Cc1cccs1)N1CCc2[nH]nc(-c3ccccc3)c2C1`, for which the RP-LC retention time amounted to 839 s.

In turn, `Cc1ccc(S(=O)(=O)Nc2ccncc2)c(C)c1N(C)S(=O)(=O)c1ccc(F)cc1` displayed an RP-LC retention time of 625 s.

Consider `CCn1cnc(S(=O)(=O)N2CCC(C(=O)Nc3ccccc3)CC2)c1`, for which the RP-LC retention time was 701 s.

For `O=C(Cc1ccc([N+](=O)[O-])cc1)NC1CC(=O)N(c2ccc(Cl)cc2)C1` (stereo unspecified), the RP-LC retention time is 760 s.

`O=C(Cn1nc2c(cc1=O)CCCC2)Nc1nc(-c2ccc3c(c2)OCO3)cs1` registered an RP-LC retention time of 851 s.

Turning to `COc1ncc(C(=O)NCc2ccc(C(F)(F)F)cc2)cn1`, the RP-LC retention time is 773 s.

Turning to `Cc1ccc(C2CC(=O)c3cnc(N4CCN(c5ccccc5)CC4)nc3C2)cc1` (stereo unspecified), the RP-LC retention time came to 1340 s.

For the compound `CCc1nn(C)c(=O)c2cc(S(=O)(=O)NCc3ccccc3Cl)cn12`, the RP-LC retention time is 893 s.

The compound `Clc1ccc(-c2ccc(CNCc3ccccn3)o2)cc1` yielded an RP-LC retention time of 689 s.

Compound `O=C(Cn1cnc2nc(N3CCCC(C(=O)NC4CC4)C3)sc2c1=O)Nc1ccc(F)c(F)c1` (stereo unspecified) had an RP-LC retention time of 705 s.

`CC(=O)Nc1ccc(NC(=O)C2CCCN(S(=O)(=O)c3cc(-c4noc(C)n4)cs3)C2)cc1` (stereo unspecified) yielded an RP-LC retention time of 744 s.

In turn, `COc1cccc(CNC(=O)Cc2cn(C)c3ncccc23)c1OC` returned an RP-LC retention time of 669 s.

Consider `COc1cc(F)c(F)c(Nc2ccc(I)cc2F)c1NS(=O)(=O)C1(C[C@H](O)CO)CC1`, for which the RP-LC retention time stood at 1050 s.

`CCOc1ccc(-c2nc(-c3cccc(-c4ccn[nH]4)c3)no2)cc1OCC` displayed an RP-LC retention time of 1080 s.

Consider `CCCn1cc(S(=O)(=O)Nc2cc(F)ccc2F)c2cccnc21`, for which the RP-LC retention time worked out at 890 s.

Turning to `CCc1nncn1C1CCN(C(=O)Nc2ccc(Cl)cc2F)C1` (stereo unspecified), the RP-LC retention time is 638 s.

As for `CN1C(=O)C(CC(=O)NCc2nc3ccccc3n2C)=C2CCCCC21` (stereo unspecified), the RP-LC retention time is 600 s.

Compound `COc1ccc(-c2nc(NCCCN3CCCC(C)C3)c3ccccc3n2)cc1` (stereo unspecified) registered an RP-LC retention time of 572 s.

In the case of `CCc1cc(C2CCCN2C(=O)Nc2cccc(OC)c2)on1` (stereo unspecified), the RP-LC retention time is 835 s.

Compound `CCc1noc(NC(C)=O)c1-c1ccc(C)c(S(=O)(=O)Nc2ccc3c(c2)OCCO3)c1` showed an RP-LC retention time of 784 s.

Take `CCOC(=O)c1ncn2c1[C@@H]1CCCN1C(=O)c1cc(OC)ccc1-2`: the RP-LC retention time was 758 s.

Turning to `O=C(C1CC1)N1CCc2sc(S(=O)(=O)NCc3cccc(F)c3)cc2C1`, the RP-LC retention time is 805 s.

Consider `CCOc1ccc(N2C=C(C(=O)N3CCCC3)S(=O)(=O)c3ccc(F)cc32)cc1`, for which the RP-LC retention time was 872 s.

In turn, `Cc1ccc(-c2cc(C(=O)O)c3ccccc3n2)c(C)c1` showed an RP-LC retention time of 821 s.

Compound `Cc1cccc(NS(=O)(=O)c2cc3n(c2)CCN(C)C3=O)c1C` returned an RP-LC retention time of 694 s.

`CC(NC(=O)c1ccc(-c2ccsc2)nc1)c1ccc(F)cc1` (stereo unspecified) showed an RP-LC retention time of 908 s.

In turn, `CCCn1nc(-n2cnnc2)c(NC(=O)c2cc(OC)cc(OC)c2)c1C` registered an RP-LC retention time of 682 s.

`CCC(C)NC(=O)C1CCN(S(=O)(=O)c2ccc3c(c2)sc(=O)n3C)CC1` (stereo unspecified) yielded an RP-LC retention time of 757 s.

`O=C(NCc1ccccc1Cl)C(=O)NCC1CCN(C(=O)Oc2ccccc2)CC1` came in with an RP-LC retention time of 893 s.

Take `CC(C)N1CCN(C(=O)CN2CCN(Cc3ccccc3)C2=O)CC1`: the RP-LC retention time was determined as 565 s.

The compound `O=C(CCc1ccc2[nH]ccc2c1)NCc1ccc(F)cc1` displayed an RP-LC retention time of 793 s.

The compound `COc1ccc(OC)c(CNC(=O)c2cn3c(n2)COCC3)c1` registered an RP-LC retention time of 639 s.

For `Cc1nc(C(N)=O)nc2ccccc12`, the RP-LC retention time worked out at 657 s.

As for `Cc1ccccc1C(=O)NC1CCN(c2cc(-c3cccs3)[nH]n2)C1` (stereo unspecified), the RP-LC retention time is 705 s.

As to `COc1ccc(S(=O)(=O)N2CCCC(C(=O)Nc3ccccc3Br)C2)cc1C` (stereo unspecified), the RP-LC retention time was found to be 1040 s.

Turning to `COc1cccc(-c2noc(C3CCCN3C(=O)Nc3ccc4c(c3)OCCO4)n2)c1` (stereo unspecified), the RP-LC retention time was 886 s.

The compound `CCOc1ccccc1C(=O)Nc1c(-c2ccccc2)nc2ccccn12` yielded an RP-LC retention time of 685 s.

`Cn1cc(CN2CCN(C(=O)c3cc(-c4cccs4)[nH]n3)CC2)c2ccccc21` registered an RP-LC retention time of 664 s.

`Cc1cccc(NC(=O)N2CCc3nc[nH]c3C2)c1C` registered an RP-LC retention time of 565 s.

In turn, `CC1CCN(S(=O)(=O)c2ccc3c(ccc(=O)n3CC(=O)NC3CCCc4ccccc43)c2)CC1` (stereo unspecified) gave an RP-LC retention time of 919 s.

`C#CCSc1nc2ccc([N+](=O)[O-])cc2s1` had an RP-LC retention time of 935 s.

As to `O=C(Cn1nc2nc(N3CCCC3)ccn2c1=O)N1CCN(c2ccccc2F)CC1`, the RP-LC retention time worked out at 691 s.

Compound `CCOC(=O)C1=C(CN2CCC(c3ccccc3)C2)NC(=O)NC1c1ccc(F)cc1` (stereo unspecified) yielded an RP-LC retention time of 687 s.

As to `O=c1n(Cc2ccc(F)cc2)nc2ccc(S(=O)(=O)N3CCOCC3)cn12`, the RP-LC retention time is 785 s.

As for `c1cncc(-c2nc3ccccc3s2)c1`, the RP-LC retention time is 873 s.

Regarding `COc1ccc2c(c1)C13CCN(C)C(C2)C1CCC1(C3)OCCO1` (stereo unspecified), the RP-LC retention time is 645 s.

As to `Cc1nc2cc(-c3noc(-c4ccc(C#N)cc4)n3)ccc2o1`, the RP-LC retention time came to 1010 s.

As to `C=CCN1CCN(c2ccc3nnc(CCc4nc(-c5ccccc5OC)no4)n3n2)CC1`, the RP-LC retention time was 573 s.

With `COc1cccc(N2CCN(c3ccc(-c4nc(-c5cccc(F)c5)no4)cn3)CC2)c1`, the RP-LC retention time was determined as 1310 s.

As for `CCN(C(=O)c1ccccc1OC)c1nc(-c2ccccc2)cs1`, the RP-LC retention time was determined as 1210 s.

Regarding `Cc1noc(C)c1Cc1c(C(=O)NCC23CCC=C2N(C)C(=O)CC3)noc1C` (stereo unspecified), the RP-LC retention time turned out to be 768 s.

For `CCn1cc(-c2nc(C)c(C(=O)Nc3ccc(OC)cc3OC)s2)c2cccnc21`, the RP-LC retention time is 1050 s.

Take `CN(C)CC1CCC/C(=C\c2ccc(OC(=O)/C=C/c3ccccc3)cc2)C1=O` (stereo unspecified): the RP-LC retention time was 796 s.

In the case of `CCC(=O)N1CCc2sc(S(=O)(=O)NCc3ccc4c(c3)OCO4)cc2C1`, the RP-LC retention time stood at 773 s.

`CCn1nc(C)c2c(-c3ccccc3)cc(OC(C)C(=O)Nc3ccc4c(c3)OCO4)nc21` (stereo unspecified): the RP-LC retention time worked out at 1030 s.

`COC(=O)C1=CN(c2ccc(C)c(C)c2)c2ccccc2S1(=O)=O` yielded an RP-LC retention time of 941 s.

`Cc1cc(=O)n(CC(=O)Nc2cc(F)ccc2F)c(N2CCOCC2)n1` showed an RP-LC retention time of 698 s.

`Cc1cc(C)n(-c2cc(NCCNC(=O)c3ccc(Br)o3)ncn2)n1` had an RP-LC retention time of 718 s.
